Experimental data reported in US11013224B2, “Substance and composition for veterinary purpose” (priority 2016, dated 2021).
Read-outs that look alike come from different tables or passages of the source.

Legend:
hoof [1] = test: Application of cromoglycate using inhalation in horses; assay type: in vivo
Experimental: Gas mix system and the Air-ONE nebuliser were prepared and operated as per manufacturer's instructions. […] Treatment was continued until all 70 ml had been inhaled (between 20 to 30 minutes). Horses were treated at 2 day intervals for at least 1 and up to 3 weeks. […] Micro-circulation was measured during inhalation using PeriFlux System 5000. Hoof quality and growth were determined as described above.

hoof [2] = test: Application of cromoglycate using limb perfusion in healthy horses; assay type: in vivo
Experimental: Standard blood analysis was carried out before and after treatment. Hoof quality and growth were determined over a period of time as described above.

hoof [3] = test system: hoof
Experimental: Routine equine intravenous fluid therapy was carried out twice per week for 4 weeks. Standard blood analysis was carried out on Abbott i-STAT systems, Abbott Architect ci8200 and Architect Celldyn CD3700 before and after treatment. Micro-circulation was measured during treatment using PeriFlux System 5000. Hoof quality and growth were determined as described above.

[4] = limb perfusion, 35 ml of 71 g/L per front limb

O=C(O)c1cc(=O)c2c(OCC(O)COc3cccc4oc(C(=O)O)cc(=O)c34)cccc2o1 [sodium cromoglycate]
Tolerability of repeated inhalation (hoof [1]; 70 ml of 70 g/l per horse by nebuliser, 2 day intervals, 1 to 3 weeks): well tolerated
Calcium upon treatment (hoof [1]; inhalation): effected
Digestion, coat and hoof quality (hoof [1]; inhalation): improves
Hoof growth and hoof quality (hoof [1]; inhalation): increases hoof growth and improves hoof quality
Micro-circulation (hoof [1]; measured during inhalation, PeriFlux System 5000): activates
Heart rate, temperature and gut sounds (hoof [2]; 24 h after injection): normal
Hoof growth and hoof quality (hoof [2]; limb perfusion): increases hoof growth and improves hoof quality
Ionized calcium, pre vs post treatment blood data (hoof [2]; [4]): a change
Potassium, pre vs post treatment blood data (hoof [2]; [4]): a reduction
Hoof growth and hoof quality (hoof [3]; intravenous fluid): increases hoof growth and improves hoof quality
Digestion, coat and hoof quality (hoof [3]; intravenous fluid infusion): improves
Calcium upon treatment (hoof [3]; intravenous fluid therapy): effected
